The test system of test [1] is GnRH release. Description: GnRH release in the stalk-median eminence, microdialysis. The note with it: pubertal female rhesus monkeys; 10 nM infused over 30 min through microdialysis probe. The format is in vivo, rhesus monkey. How it is done: Four female rhesus monkeys, born and raised in the Wisconsin National Primate Research Center, were used in this study. They were housed in pairs (cages 172×86×86 cm) in rooms with 12 h of light 12 h of darkness and controlled temperature (22° C.). The animals were fed a standard diet of Harlan 20% Protein Primate Diet twice each day, supplemented with fresh fruit several times per week. Water was available ad libitum. The protocol for this study was reviewed and approved by the Animal Care and Use Committee, University of Wisconsin, and all experiments were conducted under the guidelines established by the NIH and USDA.
The effects of peptide 234 on GnRH release were examined using the microdialysis method. This method allows collection of dialysate samples for GnRH measurement while peptide 234 was infused through the semi-permeable membrane, as described previously (25)′(24). Peptide 234 dissolved in CNS perfusion fluid was infused in the stalk median eminence region through the microdialysis probe for 30 min while dialysates were continuously collected. […]
On the day of experiment the monkey was placed in the stereotaxic apparatus under ketamine (15 mg/kg b.w.) and medetomidine (0.03-0.05 mg/kg b.w.) anesthesia. […] The x, y, and z coordinates for the S-ME were calculated using ventriculographs and the final radiographs taken during cranial pedestal implantation surgery. […]

In test [2] the target is GPR54 (Homo sapiens, UniProt Q969F8). Nature of the test: Inositol phosphate (IP) stimulation assay in CHO/gpr-54 cells. The format is cell-based. Also on record: G. Vassart, Univ; Brussels. The following applies: CHO cells stably-expressing human gpr-54.
Description: Inositol-3-phoshate Stimulation Assay—Cell monolayers had 0.5 mls HEPES modified DMEM supplemented with 1% Penicillin/Streptomycin for 30 mins at 37° C. to block IP3 breakdown. Cells were then stimulated with 0.5 mls Kisspeptin-10 and analogues (10 pM-1 uM) diluted at 1:1000 in the above media for 1 hr at 37° C., then in 10 mM Formic acid at 4° C. for 1 hr to lyse cells. Lysate was then transferred to plastic tubes containing 0.5 mls Dowex resin to bind the radioactive IP3 and the resin was then washed with 1 ml H2O. The resin was then washed with 60 mM NH4 formate/5 mM Sodium tetraborate followed by 1M NH4 formate/0.1M Formic acid to release the bound radiation. Then 800 μls of the radioactive solution were transferred to scintillation vials containing 2.5 mls scintillation fluid and radioactivity counted on a Beta counter for 60 seconds.
IP stimulation refers to intrinsic residual agonist activity where estimateable.
The cells were maintained in Dulbecco's modified Eagle's medium (DMEM; Sigma) supplemented with 10% fetal calf serum, 2% glutamine and 1% penicillin (10,000 units/ml)/streptomycin (10,000 mg/ml) at 37° C. in a humidified 5% CO2 atmosphere.
Prior to stimulation CHO/gpr-54 cells were washed twice with Dulbecco's phosphate-buffered saline (DPBS; without calcium or magnesium) then incubated overnight with ^3H-myoinositol, labeled HEPES-modified DMEM with 1% penicillin/streptomycin at 37° C. HEPES-modified DMEM supplemented with 1% penicillin/streptomycin and 1% lithium chloride (0.5 ml) was added to cells for 30 min at 37° C. to block IP hydrolysis. Cells were then stimulated with 0.5 ml kisspeptin-10 and analogues (10 pM-1 μM) diluted at 1:100 in the above media for 1 h at 37° C., then with 10 mM formic acid at 4° C. for 1 h to lyse cells. Lysates were transferred to plastic tubes containing 0.5 ml Dowex resin to bind the radioactive IP and the resin was then washed with 1 ml water. The resin was next washed with 60 mM ammonium formate/5 mM sodium tetraborate. followed by 1M ammonium formate/0.1M formic acid to release the bound radiation. Then 800 μl of the radioactive solution were transferred to scintillation vials containing 2.5 ml scintillation fluid and radioactivity counted on a Beta counter for 60 sec. Experiments were repeated 3-5 times. IP production was plotted as mean values±SEM and analyzed by using a Student's t-Test (p≧0.05).

Entries after “also recorded” stand apart in the source; their conditions may differ. Non-standard residues stand in square brackets, D forms with d. Residues, ends and D or L forms follow the SMILES beside them.

GPR54, sequence (Q969F8 whole entry): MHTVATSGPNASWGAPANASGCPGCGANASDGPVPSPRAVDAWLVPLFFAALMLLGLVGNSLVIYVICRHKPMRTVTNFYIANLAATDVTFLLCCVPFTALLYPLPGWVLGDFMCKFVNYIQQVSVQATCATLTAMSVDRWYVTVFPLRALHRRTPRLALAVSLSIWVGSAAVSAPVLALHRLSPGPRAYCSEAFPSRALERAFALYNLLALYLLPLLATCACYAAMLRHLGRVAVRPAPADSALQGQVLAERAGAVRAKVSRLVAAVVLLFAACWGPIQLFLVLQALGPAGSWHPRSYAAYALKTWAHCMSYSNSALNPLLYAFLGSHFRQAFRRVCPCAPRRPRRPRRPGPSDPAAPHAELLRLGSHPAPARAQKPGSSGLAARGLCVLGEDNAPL

Consider `CC(=O)N[C@H](C)C(=O)N[C@@H](CC(N)=O)C(=O)N[C@@H](Cc1c[nH]c2ccccc12)C(=O)N[C@@H](CC(N)=O)C(=O)NCC(=O)N[C@@H](Cc1ccccc1)C(=O)NCC(=O)N[C@H](Cc1c[nH]c2ccccc12)C(=O)N[C@@H](CCCNC(=N)N)C(=O)N[C@@H](Cc1ccccc1)C(N)=O` [Peptide 234] (Ac-[dA]NWNGFG[dW]RF-NH2), for which the “GnRH pulses and mean GnRH levels” value in test [1] was “suppressed”. Also, the “stimulation of IP by the peptide alone” value in test [2] is reported as “little or no stimulation; also recorded: no intrinsic IP stimulation”.

Values taken from patent US8916681B2, “Compound, use and method” (Medical Research Council, priority 2007, dated 2014).
